The values that follow come from US7205305B2, “Inhibitors of p38” (Vertex Pharmaceuticals Incorporated, priority 1996, dated 2007).

Usually IC50 stands for the concentration needed to halve the response being measured. Read a high IC50 as a need for much substance. By Ki is commonly meant a dissociation constant, usually derived from enzyme kinetics or from competition with a known ligand.

In assay [1] the test system is IL-1 production in LPS-stimulated PBMCs. Kind of assay: Inhibition of IL-1 production in LPS-stimulated PBMCs ("cell"). The class given is cell-based, human. Particulars: Homo sapiens, PBMC. In outline:
(§1)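 Cytokine levels (IL-1β, TNF-α) in culture supernatants quantified by ELISA, with IC50 taken from dose-response curves. Fresh human PBMCs in RPMI1640 with 10% FBS received serially diluted compound plus LPS (4 ng/ml final) and were cultured 12–15 h at 37 °C, 5% CO2.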

The target of assay [2] is T1, activated p38 (Homo sapiens, UniProt Q16539). Kind of assay: Inhibition of ATPase activity. The class given is biochemical. Particulars: ATPase activity of activated p38 (60 nM), 30° C., 30 minutes. The protocol:
This assay was carried out in the presence of 10 mM MgCl2, 25 mM β-glycerophosphate, 10% glycerol and 100 mM HEPES buffer at pH 7.6. For a typical Ki determination, the Km for ATP in the ATPase activity of activated p38 reaction was determined in the absence of inhibitor and in the presence of two concentrations of inhibitor. A stock solution was prepared containing all of the above components and activated p38 (60 nM). The stock solution was aliquotted into vials. […] The reaction was initiated by adding various concentrations of ATP and then incubated at 30° C. After 30 minutes, the reactions were quenched with 50 μl of EDTA (0.1 M, final concentration), pH 8.0. The product of p38 ATPase activity, ADP, was quantified by HPLC analysis.
Separation of ADP from ATP was achieved on a reversed phase column (Supelcosil, LC-18, 3 μm, part no. 5–8985) using a binary solvent gradient of following composition: Solvent A—0.1 M phosphate buffer containing 8 mM tetrabutylammonium hydrogen sulfate (Sigma Chemical Co., catalogue no. T-7158), Solvent B—Solvent A with 30% methanol.
Ki was determined from the rate data as a function of inhibitor and ATP concentrations.

Assay [3] has as its target T1, activated p38. Kind of assay: Inhibition of phosphorylation of EGF receptor peptide ("kinase"). The class given is biochemical. Particulars: inhibition of phosphorylation of EGF receptor peptide by activated p38. The method in brief: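 Activated p38 was preincubated with inhibitor for 15 min at room temperature in 100 mM HEPES pH 7.6, 10 mM MgCl2, 25 mM β-glycerophosphate, 10% glycerol, 5% DMSO final. Reaction used 200 μM EGF receptor peptide and 100 μM ATP for 30 min at 30° C. TFA-quenched phosphopeptide was quantified by reverse-phase HPLC.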

The test system of assay [4] is IL-8 production in IL-1-stimulated PBMCs. Kind of assay: Inhibition of IL-8 production in IL-1-stimulated PBMCs. The class given is cell-based. Particulars: Homo sapiens, PBMC; IL-1b-stimulated PBMCs, ELISA, overnight incubation. The protocol:
(§2) This assay was carried out on PBMCs exactly the same as above except that 50 μl of an IL-1b working stock solution (2 ng/ml in cell culture medium) was added to the assay instead of the (LPS) working stock solution.
(§3) Cell culture supernatants were harvested as described above and analyzed by ELISA for levels of IL-6 (Endogen, #EH2-IL6) and IL-8 (Endogen, #EH2-IL8) according to the instructions of the manufacturer. The ELISA data were used to generate dose-response curves from which IC50 values were derived.
In general terms: ELISA stands for enzyme-linked immunosorbent assay.

Assay [5] relates to TNF production in LPS-stimulated PBMCs. Kind of assay: Inhibition of TNF production in LPS-stimulated PBMCs ("cell"). The assay is classed as cell-based, human. Particulars: Homo sapiens, PBMC. In outline:
as §1

In assay [6] the test system is IL-6 production in IL-1-stimulated PBMCs. Kind of assay: Inhibition of IL-6 production in IL-1-stimulated PBMCs. The class given is cell-based. Particulars: Homo sapiens, PBMC; IL-1b-stimulated PBMCs, ELISA, overnight incubation. On the procedure:
as §2, §3

For assay [7], the system named is LPS induced PGHS-2 expression in PBMCs. Kind of assay: Inhibition of LPS-induced prostaglandin endoperoxide synthase-2 (PGHS-2, or COX-2) induction in PBMCs. The assay is classed as cell-based, human. Particulars: PBMCs, 0.2, 2.0 and 20 μM compound, LPS 4 ng/ml, overnight, anti-COX-2 immunoblot. On the procedure:
Human peripheral mononuclear cells (PBMCs) were isolated from fresh human blood buffy coats by centrifugation in a Vacutainer CPT (Becton & Dickinson). We seeded 15×10^6 cells in a 6-well tissue culture dish containing RPMI 1640 supplemented with 10% fetal bovine serum, 50 U/ml penicillin, 50 μg/ml streptomycin, and 2 mM L-glutamine. Compound 6 (above) was added at 0.2, 2.0 and 20 μM final concentrations in DMSO. Then we added LPS at a final concentration of 4 ng/ml to induce enzyme expression. The final culture volume was 10 ml/well.
After overnight incubation at 37° C., 5% CO2, the cells were harvested by scraping and subsequent centrifugation, then the supernatant was removed, and the cells were washed twice in ice-cold DPBS (Dulbecco's phosphate buffered saline, BioWhittaker). The cells were lysed on ice for 10 min in 50 μl cold lysis buffer (20 mM Tris-HCl, pH 7.2, 150 mM NaCl, 1% Triton-X-100, 1% deoxycholic acid, 0.1% SDS, 1 mM EDTA, 2% aprotinin (Sigma), 10 μg/ml pepstatin, 10 μg/ml leupeptin, 2 mM PMSF, 1 mM benzamidine, 1 mM DTT) containing 1 μl Benzonase (DNAse from Merck). The protein concentration of each sample was determined using the BCA assay (Pierce) and bovine serum albumin as a standard. Then the protein concentration of each sample was adjusted to 1 mg/ml with cold lysis buffer. […]
A general note: Immunoblotting shows a protein as a band on a membrane.

T1 sequence (Q16539 whole entry): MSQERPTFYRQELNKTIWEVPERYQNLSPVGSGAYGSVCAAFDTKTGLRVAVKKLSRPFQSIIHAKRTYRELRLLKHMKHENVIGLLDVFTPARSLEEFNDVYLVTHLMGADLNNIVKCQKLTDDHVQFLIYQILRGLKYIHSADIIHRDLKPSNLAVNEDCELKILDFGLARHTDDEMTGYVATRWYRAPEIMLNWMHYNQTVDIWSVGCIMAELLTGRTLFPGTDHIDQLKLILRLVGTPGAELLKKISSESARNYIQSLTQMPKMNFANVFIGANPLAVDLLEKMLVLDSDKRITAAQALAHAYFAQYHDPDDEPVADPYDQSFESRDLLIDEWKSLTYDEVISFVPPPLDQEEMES

In the case of `O=c1ncn2nc(Sc3ccccc3)ccc2c1-c1c(Cl)cccc1Cl` [Compound 6], the IC50 in assay [1] was 100 to 500 nM; in assay [3], 100 to 1000 nM; in assay [4] it was 850 nM; in assay [5], at least 500 nM; in assay [6] it was 600 nM. The same molecule had a Ki in assay [2] of 400 nM. In addition, in assay [7], the “LPS induced PGHS-2 expression” value is reported as “inhibits LPS induced PGHS-2 expression in PBMCs”.
